In patent US5891924A, “Curcumin (diferuloylmethane) inhibition of NFκB activation” (Research Development Foundation, priority 1996, dated 1999):

What was measured:
NF-κB [1] = test: TNF-dependent NF-κB activation by electrophoretic mobility shift assay in ML-1a cells; format: cell-based, human
NF-κB [2] = test: Binding of NF-κB to DNA, nuclear extracts from TNF-pre-activated cells incubated with curcumin, EMSA; design: species or system human; details: nuclear extracts from TNF-pre-activated cells incubated with curcumin 15 minutes, FIG. 2b
NF-κB [3] = test: PMA- and H2O2-mediated activation of NF-κB in ML-1a cells, EMSA; format: cell-based, human; details: curcumin 50 μM 60 minutes preincubation, FIG. 3
AP-1 = test: EMSA of AP-1 transcription factor in curcumin-treated cells; format: cell-based, human; details: cells treated with different concentrations of curcumin 60 minutes at 37° C., FIG. 4
Sp1 = test: EMSA of Sp1 transcription factor in curcumin-treated cells; format: cell-based, human; details: cells treated with different concentrations of curcumin 60 minutes at 37° C., FIG. 4
NF-κB [4] = test: Effect of reducing agents DTT and DMP on inhibition of TNF-induced NF-κB activation, EMSA; format: cell-based, human; details: DTT 100 μM or DMP 100 μM, curcumin 50 μM or PAO 2.4 μM, 60 minutes, then 0.1 nM TNF 30 minutes, FIG. 5
IκBα = test: Western blot for TNF-induced phosphorylation and degradation of IκBα in ML-1a cells; format: cell-based, human; details: curcumin 50 μM 60 minutes pretreatment, TNF 0.1 nM different times, cytosolic fraction, FIG. 6A
Experimental: ML-1a (2×10^6 /ml) pretreated (for 60 minutes at 37° C.) with or without curcumin (50 μM) were incubated for different times with TNF (0.1 nM), and then assayed for IκBα (FIG. 6A) and for p65 (FIG. 6B) in cytosolic fractions by western blot analysis as described below. ML-1a (2×10^6 /ml) pretreated (for 60 minutes at 37° C.) with curcumin were incubated with TNF (0.1 nM) for 30 minutes. Nuclear and cytoplasmic extracts were assayed by western blot analysis for p65. The arbitrary units represent the relative amounts of the respective proteins as described below.
After the NF-κB activation reaction described above, postnuclear extracts were resolved on 10% SDS-polyacrylamide gels for IκBα. To determine p65 levels, nuclear and post nuclear (cytoplasmic) extracts were resolved on 8% SDS-polyacrylamide gels. After the gels, the proteins were electrotransferred to nitrocellulose filters, probed with a rabbit polyclonal antibody against IκBa or against p65, and detected by chemiluminescence (ECL-Amersham) (22). The bands obtained were quantitated using Personal Densitometer Scan v1.30 using Image Quanta software version 3.3 (Molecular Dynamics, Sunnyvale, Calif.).
The translocation of NF-κB to the nucleus is preceded by the phosphorylation and proteolytic degradation of IκBα (26). […]

p65 subunit of NF-κB = test: Western blot for p65 level in cytoplasm and nucleus of TNF-treated ML-1a cells; format: cell-based, human

In the case of `COc1cc(/C=C/C(=O)CC(=O)/C=C/c2ccc(O)c(OC)c2)ccc1O` [curcumin, diferuloylmethane], the “inhibition of TNF response, pretreatment with curcumin” value (NF-κB [1]; 20 μM curcumin 60, 30 and 10 minutes prior to TNF 0.1 nM, TNF 30 minutes, FIG. 1b) is reported as “inhibited only when cells were pretreated”, the “inhibition of TNF response, cotreatment of cells with TNF and curcumin” value (NF-κB [1]; 20 μM curcumin added at the same time as TNF 0.1 nM, TNF 30 minutes, FIG. 1b) is reported as “not effective” and the “inhibition of NF-κB activation induced by 10 nM TNF” value (NF-κB [1]; 50 μM curcumin 60 minutes pretreatment, 10 nM TNF for different times, FIG. 1c) is reported as “completely inhibit”. The “activation of NF-κB by the compound by itself” value (NF-κB [1]; ML-1a cells, without TNF, EMSA) was “did not activate”, the “effect on the ability of NF-κB to bind to the DNA” value (NF-κB [2]) was “did not modify” and the “inhibition of hydrogen peroxide-induced activation of NF-κB” value (NF-κB [3]; H2O2 0.5 mM 30 minutes) was “completely blocked”. The “inhibition of PMA-induced activation of NF-κB” value (NF-κB [3]; PMA 25 ng/ml 30 minutes) was “completely blocked”, the “effect on DNA binding of AP-1 transcription factors” value (AP-1) was “down-modulated” and the “effect on the Sp1 transcription factor” value (Sp1) was “no effect”. For the same compound, the “reversal by DTT and DMP of the inhibition of TNF-induced NF-κB activation” value (NF-κB [4]) was “did not reverse”, the “effect on TNF-induced phosphorylation and degradation of IκBα” value (IκBα) was “abolished” and the “effect on TNF-dependent change in nuclear and cytoplasmic p65 levels (translocation of p65 to the nucleus)” value (p65 subunit of NF-κB; curcumin 50 μM 60 minutes pretreatment, TNF 0.1 nM, FIGS. 6B and 6C) was “abolished”. The “down-modulation of the cytoplasmic pool of p65 subunit of NF-κB” value (p65 subunit of NF-κB; curcumin-treated ML-1a cells, western blot) was “not down-modulated”.
